Measured values as given in PMC8617031, “Development of a BCL-xL and BCL-2 dual degrader with improved anti-leukemic activity,” (Nature Communications, 2021).
Several values for one entry are separate records, joined by “and”; a condition that tells them apart may be missing. Equal values may be shown once. Read-outs that look alike come from different tables or passages of the source.

Key:
[1] = target: T1, BCL-xL (Homo sapiens, UniProt Q07817); assay: BCL-xL degradation by immunoblot in 293T cells; type: cell-based; conditions: for normalized BCL-xL protein content at 1 µM: 293T, 1 μM 753b, Fig. 3d
T1 construct: endogenous in cells
T1 sequence (Q07817 whole entry): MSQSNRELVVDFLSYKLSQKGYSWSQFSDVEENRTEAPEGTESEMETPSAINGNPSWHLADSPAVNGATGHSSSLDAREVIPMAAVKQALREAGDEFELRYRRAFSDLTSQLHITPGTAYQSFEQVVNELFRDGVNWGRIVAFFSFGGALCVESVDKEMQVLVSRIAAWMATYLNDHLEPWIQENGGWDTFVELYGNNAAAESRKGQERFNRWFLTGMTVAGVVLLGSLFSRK
Method: The DC50 and Dmax were calculated using Prism based on the ImageJ-quantified western blots in Supplementary Fig. 4. c, d AlphaLISA assay to determine the formation of BCL-xL/PROTAC/VHL-ELOC-ELOB (VCB) (c) or BCL-2/PROTAC/VCB (d) ternary complex in a cell-free condition. Data represent the mean of a single experiment with 2 technical replicates. Similar results were obtained in one more independent experiment. e, f NanoBRET assays evaluating intracellular BCL-xL/PROTAC/VCB (e) or BCL-2/PROTAC/VCB (f) ternary complex formation. […] Data are expressed as mean ± s.e.m. of three biological replicates. Source data are provided as a Source data file.
Representative immunoblots are shown in (a–d) and β-actin was used as a loading control in all immunoblot analyses. The normalized protein content in the immunoblots is presented as mean values ± s.e.m. (n = 3 biologically independent experiments) in the bar graph (bottom panel). e, f The formation of BCL-xL/PROTAC/VCB (e) and BCL-2/PROTAC/VCB (f) ternary complexes in a cell-free condition was determined by AlphaLISA assay. Data represent the mean of a single experiment with 2 technical replicates. […] Source data are provided as a Source data file.
Cells were collected, washed once with ice-cold phosphate-buffered saline, pH 7.2 (PBS, cat. no. 20012027; Thermo Fisher Scientific) and lysed in RIPA lysis buffer (Cat. No. BP-115DG, Boston Bio Products, Ashland, MA, USA) supplemented with protease and phosphatase inhibitor cocktails (Cat. No. PPC1010, Sigma-Aldrich, St. Louis, MO, USA) through sonication. The samples were centrifuged at 14,000 r.p.m. for 5 min and the supernatants were transferred into a new tube. The protein concentration in the supernatants was determined using the Pierce BCA protein Assay kit (cat. no. 23225, Thermo Fisher Scientific). The protein concentration was normalized, and the samples were reduced in 4× Laemmli’s SDS-sample buffer (cat. no. BP-110R, Boston Bio Products) and denatured at 95 °C for 5 min. An equal amount of protein samples (20–40 μg per lane) were resolved using precast 4–20% Tris-glycine gels (Mini-PROTEAN TGX, cat. no. 456–1094, Bio-Rad), and resolved proteins were transferred onto 0.2-µm pore size polyvinylidene difluoride (PVDF) blotting membranes (cat. no. LC2002, Thermo Fisher Scientific) using mini trans-blot electrophoretic transfer cell (Bio-Rad). The membranes were blocked with non-fat dry milk (5% wt/vol) in 1× Tris-buffered saline-Tween-20 (TBST, cat. no. J77500, Affymetrix) for 1 h at room temperature, and were subsequently probed with primary antibodies at a predetermined optimal concentration in non-fat dry milk (5% wt/vol in TBST) overnight at 4 °C. The membranes were washed three times (5 min each) in TBST and then incubated with horse radish peroxidase (HRP)-conjugated secondary antibodies for 1 h at room temperature. Following sufficient washing with TBST, the membranes were exposed with chemiluminescent HRP substrate (cat. no. WBKLS0500, MilliporeSigma), and the signal was detected using the ChemiDoc MP Imaging System (Bio-Rad) and quantified using the ImageJ (v1.53a) software from NIH.

[2] = target: T2, His-tagged BCL-xL (Homo sapiens, UniProt Q07817); assay: AlphaScreen competitive binary binding, BCL-xL (biotin-BAD peptide); conditions: for binary binding affinity to BCL-xL (in words): AlphaScreen, Supplementary Fig. 6
T2 construct: purchased Sigma-Aldrich SRP0187
T2 sequence (Q07817 whole entry): as above
Method: The reagents were diluted in a buffer containing 250 mM HEPES pH 7.5, 1 M NaCl, 1% BSA, and 0.05% Tween-80. His-tagged BCL-xL (0.5 nM, Cat. No. SRP0187, Sigma-Aldrich) or BCL-2 (1 nM, Cat. No. SRP0186, Sigma-Aldrich) were incubated with serial diluted 753a or 753b and 2 nM biotin-tagged BAD (biotin-[…] amino-terminal, AnaSpec, for BCL-xL) or 10 nM BIM peptides (biotin-[…] N-terminal, AnaSpec, for BCL-2) to a final volume of 40 µl in a 96-well PCR plate. […] After incubation for 2 h, 5 µl 6× His-acceptor beads (Cat. No. AL128M, PerkinElmer) were added to each well at 20 µg/ml final concentration and incubated for 1 h. Then 5 µl streptavidin-donor beads were added (Cat. No. 6760002, PerkinElmer) to each well at 20 µg/ml final concentration and incubated for 45 min. At the end of the incubation period, 17 µl of each sample was transferred in adjacent wells of 384-well proxy plate (Cat. No. 6008280, PerkinElmer). The plate was scanned using the Alpha program on Biotek’s Synergy Neo2 multimode plate reader. The inhibition constant (Ki) was calculated using the non-linear regression, one site, competitive binding, Fit Ki function on GraphPad Prism 9 software, based on experimentally determined dissociation constant (Kd) for each protein–peptide pair.

[3] = system: Kasumi-1 cells; assay: Viability (MTS) of Kasumi-1 AML cells; type: cell-based, human; conditions: Kasumi, 24h, Fig. 7c
[4] = BCL-xL Rep-1, plate row B, 5 uM
[5] = BCL-xL Rep-1, plate row D, 0.3125 uM
[6] = BCL-xL Rep-1, plate row E, 0.078125 uM
[7] = BCL-xL Rep-1, plate row F, 0.0195312 uM
[8] = BCL-xL Rep-1, plate row G, 0.00488281 uM
[9] = BCL-xL Rep-1, plate row H, 0.0012207 uM
[10] = BCL-xL Rep-1, plate row I, 0.000305176 uM
[11] = BCL-xL Rep-1, plate row J, 7.62939e-5 uM
[12] = BCL-xL Rep-1, plate row K, 1.90735e-5 uM
[13] = BCL-xL Rep-2, plate row B, 5 uM
[14] = BCL-xL Rep-2, plate row C, 1.25 uM
[15] = BCL-xL Rep-2, plate row D, 0.3125 uM
[16] = BCL-xL Rep-2, plate row E, 0.078125 uM
[17] = BCL-xL Rep-2, plate row F, 0.0195312 uM
[18] = BCL-xL Rep-2, plate row G, 0.00488281 uM
[19] = BCL-xL Rep-2, plate row H, 0.0012207 uM
[20] = BCL-xL Rep-2, plate row I, 0.000305176 uM
[21] = BCL-xL Rep-2, plate row K, 1.90735e-5 uM
[22] = BCL-xL, mean of the two replicate values (line without label)
[23] = BCL-xL, second value (line without label below Rep-1, apparently Rep-2)

SMILES	binary binding affinity to BCL-xL (in words) [2]	IC50 ([2]; BCL-xL Rep-1)	Ki ([2]; BCL-xL Rep-1)	Alpha signal (raw counts) [2, 4]	Alpha signal (raw counts) [2, 5]	Alpha signal (raw counts) [2, 6]	Alpha signal (raw counts) [2, 7]	Alpha signal (raw counts) [2, 8]	Alpha signal (raw counts) [2, 9]	Alpha signal (raw counts) [2, 10]	Alpha signal (raw counts) [2, 11]	Alpha signal (raw counts) [2, 12]	Alpha signal (raw counts) ([2]; BCL-xL Rep-2, 7.62939e-5 uM)	Alpha signal (raw counts) [2, 13]	Alpha signal (raw counts) [2, 14]	Alpha signal (raw counts) [2, 15]	Alpha signal (raw counts) [2, 16]	Alpha signal (raw counts) [2, 17]	Alpha signal (raw counts) [2, 18]	Alpha signal (raw counts) [2, 19]	further results
Cc1ncsc1-c1ccc([C@H](C)NC(=O)[C@@H]2C[C@@H](O)CN2C(=O)[C@@H](NC(=O)CCCCCCC(=O)N2CCN(C[C@@]3(C)CCC(c4ccc(Cl)cc4)=C(CN4CCN(c5ccc(C(=O)NS(=O)(=O)c6ccc(N[C@H](CCN7CCOCC7)CSc7ccccc7)c(S(=O)(=O)C(F)(F)F)c6)cc5)CC4)C3)CC2)C(C)(C)C)cc1 [753a]	much weaker than that of the warhead ABT263	39 nM	1.75 nM	27085 and 24738	145116 and 115021	433630 and 441172	726417 and 752069	950071 and 945138	1050463 and 1074380	1307721 and 1309993	1113170 and 1173569	1107772 and 1259986	1188088 and 1161046	24343 and 23695	25479 and 38889	95317 and 147841	336804 and 343845	767361 and 853215	937707 and 1041403	1127054 and 1147040	BCL-xL degradation (in words) ([1]; 293T cells, 16 h): could only partially degrade BCL-xL; Alpha signal (raw counts) ([2]; BCL-xL Rep-1, plate row C, 1.25 uM): 28062 and 40230; Alpha signal (raw counts) [2, 20]: 1272095 and 1259132; Alpha signal (raw counts) [2, 21]: 1255062 and 1549086; Ki [2, 22]: 1.52 nM; Ki [2, 23]: 1.29 nM
Cc1ncsc1-c1ccc([C@H](C)NC(=O)[C@@H]2C[C@@H](O)CN2C(=O)[C@@H](NC(=O)CCCCCCC(=O)N2CCN(C[C@]3(C)CCC(c4ccc(Cl)cc4)=C(CN4CCN(c5ccc(C(=O)NS(=O)(=O)c6ccc(N[C@H](CCN7CCOCC7)CSc7ccccc7)c(S(=O)(=O)C(F)(F)F)c6)cc5)CC4)C3)CC2)C(C)(C)C)cc1 [753b]	much weaker than that of the warhead ABT263	25.6 nM	1.15 nM	34683 and 41080	104729 and 120739	342247 and 341354	676907 and 757834	979745 and 1069221	1220627 and 1147140	1208908 and 1239363	1272719 and 1257225	1178982 and 1221697	1287481 and 1327839	27681 and 27423	19946 and 33165	104103 and 115603	336015 and 412856	814066 and 879407	1170961 and 1327234	1347085 and 1401728	DC50 ([1]; 293T cells, 16 h, Fig. 3c, read-out: DC50 in degrading BCL-xL): 6 nM; normalized BCL-xL protein content at 1 µM ([1]; HEK-293T, time point 1 (unit inferred), time 0 = 100, 3 replicates): 77%; normalized BCL-xL protein content at 1 µM ([1]; HEK-293T, time point 3): 55%; normalized BCL-xL protein content at 1 µM ([1]; HEK-293T, time point 6): 21%; normalized BCL-xL protein content at 1 µM ([1]; HEK-293T, time point 12): 13%; normalized BCL-xL protein content at 1 µM ([1]; HEK-293T, time point 16): 12%; normalized BCL-xL protein content at 1 µM ([1]; HEK-293T, time point 24): 8%; Alpha signal (raw counts) [2, 20]: 1445114 and 1473085; Alpha signal (raw counts) [2, 21]: 1348563 and 1319629; Ki [2, 22]: 1.31 nM; Ki [2, 23]: 1.48 nM; Luminescence (raw plate reading) ([3]; 2um (plate column 11)): 42731 and 33855 and 41105 and 35447; Luminescence (raw plate reading) ([3]; 4um (plate column 12)): 25069 and 21488 and 20344 and 20760
Cc1ncsc1-c1ccc([C@H](C)NC(=O)[C@@H]2C[C@@H](O)CN2C(=O)[C@@H](NC(=O)CCCCC(=O)N2CCN(CC3(C)CCC(c4ccc(Cl)cc4)=C(CN4CCN(c5ccc(C(=O)NS(=O)(=O)c6ccc(N[C@H](CCN7CCOCC7)CSc7ccccc7)c(S(=O)(=O)C(F)(F)F)c6)cc5)CC4)C3)CC2)C(C)(C)C)cc1 (stereo partly shown) [PPC6]	–	–	–	–	–	–	–	–	–	–	–	–	–	–	–	–	–	–	–	–	DC50 ([1]; 293T cells, four concentrations, 16 h, Fig. 2b, read-out: BCL-xL DC50): 39.9 nM; Dmax ([1]; HEK-293T): 91%
